Reference: US10328063B2, “Method of wound healing” (CONNEXIOS LIFE SCIENCES PVT. LTD, priority 2015, dated 2019)

Experiments:
[1] = test system: incision wound in db/db mice; assay: Incision wound model in db/db mice (tensile strength); format: in vivo; conditions: diabetic db/db mice
Procedure: (§1) db/db Mice (from JAX lab) on chow diet were weighed and randomly allocated into different groups such as db/db cream base control and db/db+0.5% CNX-010-640 cream.
(§2) [6] Mice were anaesthetized using ketamine and xylazine, hair was trimmed off and a longitudinal incision of 4 to 5 cm length was made on the back and stitched with thread. CNX-010-640 cream was applied topically, twice a day. The degree of protection for wound remodeling was assessed by measuring tensile strength and collagen content of skin at the healed wound site. Wound tensile strength was measured after 14 days of treatment.

[2] = test system: excision wound in Swiss albino mice; assay: Excision wound model in Swiss albino mice (wound contraction); format: in vivo; conditions: for Wound contraction profile in SAM: 0.5% cream topical twice a day, Mean ± SEM
Source text: (§3) After an acclimatization period, C57 animals on the HFD were weighed and randomly allocated into different groups such as HFD cream base control and HFD+0.5% CNX-010-640 cream. C57 animals on a lean chow diet (Cream base) were also used as a control. Swiss albino mice on a lean chow diet (excision experiments only) were randomized into cream base control and 0.5% CNX-010-640 cream.
(§4) Mice were anaesthetized using ketamine and xylazine, hair was trimmed off and a circular excision of 20 mm^2 size was made on the dorsal neck region. CNX-010-640 cream was applied topically, twice a day. The degree of protection for wound remodeling was assessed by measuring wound contraction and period of epithelialisation. Wound contraction was measured on alternate days by tracing the raw wound area on graph paper carried by butter paper. Scar residue and time for completion of epithelialisation was measured. Results are shown in FIGS. 2 and 3, and Tables 1 to 3. On the termination day animals were euthanized and tissue samples containing wound was collected to study histopathological changes (as shown in FIGS. 6 to 11) and gene expression profiles were determined (FIGS. 12 to 17).

[3] = test system: Human Dermal Fibroblast cells (HDF); assay: In vitro scratch assay; format: cell-based; conditions: 400 nM cortisone with 1 μM test molecule, 24 h
Procedure: Human Dermal Fibroblast cells (HDF) cells were seeded in 24 well plates (25000 cells/mL) in 1 mL of growth media (Media-106, Gibco) and allowed to grow for 24 h at 37° C. and 5% CO2. A small linear scratch was created in the confluent monolayer by gently scraping with sterile p200 pipette tips (care was taken during scratching process to ensure universal size and distant was made for all samples). Cells were extensively rinsed with PBS to remove cellular debris before adding the media with different treatment solutions (400 nM cortisone with or without 1 μM of test molecule according to Formula (I)). After 24 h, images of migrated cells were taken using a digital camera connected to inverted microscope to observe the closure of wound area. Scratch assays were performed in quadruplicate.

[4] = test system: markers of inflammation at the wound area; assay: Ex vivo gene expression profile from excision wound model; format: in vivo; conditions: HFD C57BL/6 mice, after one week of compound treatment, skin near wound
Source text: [13] […] The db/db control group wounds were not healed within this time. Furthermore, the size of wound of these control groups at the end of the experiment period (day 12) was achieved by the CNX-010-640 treated mice after only 8 days of treatment. […] [16] […] [17] Additionally, the degree of polymorphonuclear cell infiltration (indicative of inflammatory phase) was greater in the G2 group compared to the G3 group (compare FIGS. 6 and 7). From these microscopic observations it can be concluded that the treatment with 0.5% CNX-010-640 hastened the healing process, as it facilitated an early advancement into the proliferative phase in animals treated with CNX-010-640 (G3 group) of this study. Thus CNX-010-640 cream, when applied topically b.i.d, in excision and incision wound healing model on HFD background animals and normal SAM mice, enhanced the healing process in comparison with normal healing and VersaPro control. […] Gene expression was measured using SYBR Green PCR Master Mix (Eurogenetic, Belgium) and relative levels of expression were quantified (see FIGS. 12 to 17). From this, it is apparent that compound treatment has reduced the markers of inflammation at the wound area, as measured by gene expression. […]

[5] = test system: excision wound in db/db mice; assay: Excision wound model in db/db mice (wound contraction); format: in vivo; conditions: for Wound contraction profile in db/db mice: 0.5% cream topical twice a day, Mean ± SEM
Procedure: as §1, §4

[6] = test system: incision wound in diet induced obese C57 mice; assay: Incision wound model in HFD fed C57 mice (tensile strength, collagen content); format: in vivo; conditions: diabetic C57 mice
Source text: as §3, §2

[7] = test system: excision wound in diet induced obese C57 mice; assay: Excision wound model in HFD fed C57 mice (wound contraction, histopathology); format: in vivo; conditions: for Wound contraction profile in C57 mice: HFD, 0.5% cream topical twice a day, Mean ± SEM
Source text: as §3, §4
[7] All the values are expressed as Mean±SEM, one way analysis of variance was performed followed by Dunnets' test for establishing the significance value of the treatment groups when compared with the HFD control.

[8] = HFD C57 mice, 0.5% cream, excision wound
[9] = diabetes-induced C57 mice, excision

For `CC(CC(=O)N1C2CC3CC1CC(O)(C3)C2)c1c[nH]c2ccc(Cl)c(Cl)c12` (stereo not drawn) [CNX-010-640, 3-(4,5-Dichloro-1H-indol-3-yl)-1-(5-hydroxy-2-azatricyclo[3.3.1.1^3,7]dec-2-yl)butan-1-one], the “improvement of tensile strength of skin at the incision site compared with control formulation” value [1] was “up to 18%”, the “Wound contraction profile in SAM” value ([2]; Day 0) was 22.77 ± 1.38 mm^2 and the “Wound contraction profile in SAM” value ([2]; Day 2) was 15.00 ± 2.18 mm^2. For the same molecule, the “Wound contraction profile in SAM” value ([2]; Day 4) was 14.33 ± 2.62 mm^2, the “Wound contraction profile in SAM” value ([2]; Day 6) was 10.44 ± 2.80 mm^2 and the “Wound contraction profile in SAM” value ([2]; Day 8) was 3.20 ± 1.46 mm^2. The “Wound contraction profile in SAM” value ([2]; Day 10) was 1.00 ± 0.54 mm^2, the “Wound contraction profile in SAM” value ([2]; Day 12) was 0.600 ± 0.600 mm^2 and the “days of treatment to reach the wound size of the control group at day 12” value (“days of treatment” below) ([2]; Swiss albino mice, excision) was 6 days. The “time to complete healing of the wound” value ([2]; non-diabetic Swiss albino mice, excision) was 12 days, the “closure of wound area (wound healing properties, image analysis)” value [3] was “good wound healing properties” and the “markers of inflammation at the wound area, as measured by gene expression” value [4] was “reduced”. For the same molecule, the “Wound contraction profile in db/db mice” value ([5]; Day 0) was 17.10 ± 0.69 mm^2, the “Wound contraction profile in db/db mice” value ([5]; Day 2) was 23.80 ± 0.87 mm^2 and the “Wound contraction profile in db/db mice” value ([5]; Day 4) was 14.40 ± 0.91 mm^2. For the same molecule, the “Wound contraction profile in db/db mice” value ([5]; Day 6) was 11.40 ± 0.48 mm^2, the “Wound contraction profile in db/db mice” value ([5]; Day 8) was 8.20 ± 0.42 mm^2 and the “Wound contraction profile in db/db mice” value ([5]; Day 10) was 5.00 ± 0.47 mm^2. For the same molecule, the “Wound contraction profile in db/db mice” value ([5]; Day 12) was 2.20 ± 0.42 mm^2, the “Wound contraction profile in db/db mice” value ([5]; Day 16) was 0.30 ± 0.21 mm^2 and the “days of treatment” value ([5]; db/db mice, excision) was 8 days. The “time to complete healing of the wound” value ([5]; diabetic db/db mice, excision) was 16 days, the “improvement of tensile strength of skin at the incision site compared with control formulation” value ([6]; after 14 days of treatment) was “up to 38%” and the “collagen content, as estimated by measurement of hydroxyproline, compared with controls” value ([6]; incision) was “greater”. The “Wound contraction profile in C57 mice” value ([7]; Day 0) was 25.10 ± 1.40 mm^2, the “Wound contraction profile in C57 mice” value ([7]; Day 2) was 15.80 ± 1.77 mm^2 and the “Wound contraction profile in C57 mice” value ([7]; Day 4) was 17.90 ± 1.92 mm^2. The “Wound contraction profile in C57 mice” value ([7]; Day 6) was 9.40 ± 1.42 mm^2, the “Wound contraction profile in C57 mice” value ([7]; Day 8) was 5.60 ± 1.47 mm^2 and the “Wound contraction profile in C57 mice” value ([7]; Day 10) was 4.00 ± 1.41 mm^2. The “Wound contraction profile in C57 mice” value ([7]; Day 12) was 0.25 ± 0.25 mm^2, the “degree of collagen deposition (histopathology) in comparison with HFD+VersaPro control” value [7, 8] was “higher degree” and the “degree of fibroblast proliferation (histopathology) in comparison with HFD+VersaPro control” value [7, 8] was “higher degree”. For the same molecule, the “days of treatment” value [7, 9] was 6 days, the “time to complete healing of the wound” value [7, 9] was 12 days and the “degree of polymorphonuclear cell infiltration (histopathology)” value ([7]; diabetes-induced mouse, VersaPro cream with 0.5% compound, excision wound) was “mild”.
